# Assays:
# [1] = molecular target: T1, AChE from Electrophorus electricus (type VI-S) (Electrophorus electricus, UniProt O42275); assay: biochemical; settings: Ellman's method, pH 7.4, acetylthiocholine 1 mM; mean ± SD; read-out: Anti-AChE IC50
# T1 construct: purchased type VI-S
# Protocol: It is well-known that the cholinergic system plays a vital role in the regulation of the learning, cognitive and memory processes. […] In the present study, all acridones were tested for their inhibition of AChE according to the method of Ellman and co-workers, using tacrine as a reference compound. […] Acridone consists of two benzene rings fused together with a keto group and a nitrogen atom at positions 9 and 10, respectively, resulting in a planar structure.
# AChE activity was evaluated and modified from Ellman’s method. All test compounds were prepared as stock solution in ethanol. […] Experiments were performed in triplicates.
# Aβ1-42 = Aβ1-42 (Homo sapiens, UniProt P05067); assay: Inhibition of self-mediated Aβ1-42 aggregation (thioflavin T assay)
# Protocol: The Aβ1-42 self-aggregation process was studied using the thioflavin-T assay [62, 63]. […] All test compounds were dissolved by DMSO.
# [2] = ABTS radical scavenging assay; settings: read-out: ABTS Scavenging Activity IC50; mean ± SD, triplicates; 10 to 100 µM tested
# Protocol: In the present study, the antioxidant activity of the 10 acridones was evaluated by ABTS radical scavenging assay and trolox was used as the reference compound.
# The antioxidant activity was determined by the decolonization of the radical cation of 2,2′-azinobis-(3-ethylbenzothiazoline-6-sulfonic acid) (ABTS^•+) [60]. […] Prior to the assay, the ABTS^•+ solution was diluted to get an absorbance of 0.70 ± 0.02 at 700 nm with ethanol. Trolox was used as an antioxidant standard. All test and standard compounds were dissolved in ethanol. Fifty microliters of each test compound was added to 100 µL of diluted ABTS^•+ solution to obtain final concentrations from 10 to 100 µM. […] Experiments were performed in independent triplicates.
# [3] = test system: SH-SY5Y neuroblastoma cells; assay: Cytotoxicity by MTT assay in SH-SY5Y cells; assay type: cell-based; settings: 0.1–10 µM, 24 h incubation
# Protocol: […]. […] […]. Thus, the acridones were investigated for neuroprotective effects against H2O2 and Aβ1-42 induced toxicity in human SH-SY5Y neuroblastoma cells at the non-toxic concentration of 10 µM.
# (§1) Human neuroblastoma cell line SH-SY5Y cells were cultured in Dulbecco’s modified Eagle medium (DMEM)/Ham’s F-12 medium supplemented with 10% fetal bovine serum (FBS), 100 U/mL penicillin and 100 µg/mL streptomycin. Cells were routinely cultured in 75 cm^2 cell culture flasks at 37 °C in 5% CO2. After that, cells were seeded at a density 5 × 10^5 cells/mL in 96-well plates and incubated for an additional 48 h before evaluation.
# For the investigation of the toxicity effect of test compounds, cells were treated with test compounds at final concentrations of 0.1, 1, 10, 100 μM for 24 h. […] Then, culture media was replaced with a solution of MTT (0.5 mg/mL) at 37 °C for 2 h to determine survival of cells. Live cells containing formazan crystals were solubilized in 100 µL of DMSO. The absorption was measured by UV spectrometer ([…] Accureader M965) at 570 nm. The percentages of cell viability were calculated in relation to untreated cells.
# SH-SY5Y cells [4] = assay: Neuroprotection against H2O2-induced cell death in SH-SY5Y cells; assay type: cell-based, Human; settings: 10 µM pre-treatment 24 h, then 250 µM H2O2 for 2 h
# Protocol: (§2) To examine the neuroprotective effects of acridones against H2O2, SH-SY5Y cells were pre-treated with 10 µM citrusinine II and glycosparvarine for 24 h before exposure to 250 µM H2O2 for 2 h. […] The cytotoxic effects of H2O2 were attenuated by pre-treating cells with citrusinine II and glycosparvarine (Figure 8). For evaluation of the neuroprotective effects of acridones against Aβ1-42 toxicity, SH-SY5Y cells were pre-treated with 10 µM citrusinine II and glycosparvarine for 24 h, followed by 25 µM Aβ1-42 for 24 h. Cell viability was determined by MTT assay.
# as §1
# For evaluation of the neuroprotective effect against H2O2 induced cell damage, cells were pretreated with test compounds or a reference standard at the concentration of 10 μM for 24 h. After treatment, the medium was removed, and cells were washed with phosphate buffer saline to remove unabsorbed test compounds. […] The cell viability was determined by MTT assay.
# SH-SY5Y cells [5] = assay: Neuroprotection against Aβ1-42-induced cell death in SH-SY5Y cells; assay type: cell-based, Human; settings: 10 µM pre-treatment 24 h, then 25 µM Aβ1-42 for 24 h
# Protocol: as §2, §1
# For neuroprotection against Aβ1–42 toxicity, the Aβ1–42 preparation was modified from Thiratmatrakul et al.. Briefly, lyophilized Aβ1–42 was reconstituted in sterile water and kept at –80 °C until use. […] Twenty-four hours later, cell viability was determined by the MTT colorimetric method. […]
# T1 sequence (O42275 24-633): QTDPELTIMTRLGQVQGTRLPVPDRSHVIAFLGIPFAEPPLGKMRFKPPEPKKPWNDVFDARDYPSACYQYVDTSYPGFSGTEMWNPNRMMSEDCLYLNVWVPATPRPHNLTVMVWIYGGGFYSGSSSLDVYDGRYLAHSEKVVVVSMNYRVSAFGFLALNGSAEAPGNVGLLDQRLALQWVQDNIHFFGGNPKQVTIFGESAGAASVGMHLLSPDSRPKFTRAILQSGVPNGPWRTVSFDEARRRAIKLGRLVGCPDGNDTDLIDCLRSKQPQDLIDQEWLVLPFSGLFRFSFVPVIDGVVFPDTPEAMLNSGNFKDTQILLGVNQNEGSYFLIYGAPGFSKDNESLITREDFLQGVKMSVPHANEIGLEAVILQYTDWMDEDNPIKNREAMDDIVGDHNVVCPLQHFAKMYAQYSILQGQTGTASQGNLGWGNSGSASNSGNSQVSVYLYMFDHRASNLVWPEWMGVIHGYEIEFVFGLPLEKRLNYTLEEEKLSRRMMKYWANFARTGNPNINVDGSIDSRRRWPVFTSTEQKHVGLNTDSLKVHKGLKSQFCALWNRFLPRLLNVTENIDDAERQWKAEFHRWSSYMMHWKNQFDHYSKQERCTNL
# Chain of Aβ1-42 (P05067 672-713 limits assumed): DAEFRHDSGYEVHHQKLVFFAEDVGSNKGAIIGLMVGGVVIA
SMILES,IC50 [1] [µM],IC50 (Aβ1-42) [µM],IC50 [2] [µM],Effect on viability of SH-SY5Y cells (MTT) [3],Neuroprotective effect against H2O2-induced loss of cell viability (MTT) (SH-SY5Y cells [4]),Neuroprotective effect against Aβ1-42 toxicity (MTT) (SH-SY5Y cells [5])
"CC(C)=CCc1c(O)c(CC=C(C)C)c2[nH]c3c(O)cccc3c(=O)c2c1O [Atalaphylline, atalaphylline]",58.3 ± 2.99,6.58 ± 1.3,46.2 ± 2.31,,,
"CC(C)=CCc1c2c(c3[nH]c4c(O)cccc4c(=O)c3c1O)C=CC(C)(C)O2 [Atalaphyllinine, atalaphyllinine]",60.8 ± 4.62,4.79 ± 0.67,53 ± 1.83,,,
"COc1cc2[nH]c3c(O)cccc3c(=O)c2c(O)c1CC=C(C)C [Buxifoliadine C, buxifoliadine C]",50.8 ± 3.74,8.81 ± 3.62,21.8 ± 2.71,,,
"COc1c(O)c(OC)c2c(c1O)c(=O)c1cccc(O)c1n2C [Citruscridone, citruscridone]",47 ± 2.4,8.61 ± 0.75,31.7 ± 0.56,,,
"COc1cc(O)c2c(=O)c3cccc(O)c3n(C)c2c1OC [Citrusinine I, citrusinine I]",35.4 ± 1.61,7.05 ± 1.45,33.77 ± 0.29,,,
"COc1c(O)cc(O)c2c(=O)c3cccc(O)c3n(C)c12 [Citrusinine II, citrusinine II]",42.6 ± 4.81,6.17 ± 2.29,20 ± 3.89,no effect on viability,attenuated,significantly protected
"COc1c(O)cc2c(c1O)c(=O)c1cccc(O)c1n2C [Glycosparvarine, glycosparvarine]",18.6 ± 2.77,6.58 ± 2.03,22.9 ± 2.24,no effect on viability,attenuated,
CC(C)=CCc1c(O)c(CC=C(C)C)c2c(c1O)c(=O)c1cccc(O)c1n2C [N-methylatalaphylline],49.1 ± 2.75,7.32 ± 0.09,50.7 ± 1.02,,,
CC(C)=CCc1c2c(c3c(c1O)c(=O)c1cccc(O)c1n3C)C=CC(C)(C)O2 [N-methylatalaphyllinine],54 ± 2.03,6.14 ± 3.85,57.5 ± 3.52,,,
CC(C)=CCc1c2c(c(O)c3c(=O)c4cccc(O)c4n(C)c13)C=CC(C)(C)O2 [N-methylcycloatalaphylline A],66.6 ± 2.51,5.84 ± 0.99,79.6 ± 3.26,,,
"Cc1c(C)c2c(c(C)c1O)CCC(C)(C(=O)O)O2 (stereo not drawn) [Trolox, reference compound]",,,58.9 ± 2.38,,,

# — paper PMC8470973, “Multi-Target Actions of Acridones from Atalantia monophylla towards Alzheimer’s Pathogenesis and Their Pharmacokinetic Properties” (Pharmaceuticals, 2021)
